How the values were obtained:
[1] = system: mouse embryonic fibroblasts (MEFs); assay: Reprogramming efficiency: GFP-positive cells by flow cytometry in KSP-Cre mTOM/mGFP reporter MEFs; type: cell-based; conditions: added to culture medium of 4TF treated MEFs for 7 days: Vitamin C 50 μg/ml, CHIR99021 3 μM, Forskolin 10 μM, Valproic Acid 1 mM, 5-Azacytidine 2 μM
Protocol: Next, we expressed candidate transcription factors in isolated MEFs by lentiviral transduction and analyzed GFP reporter-expression by flow cytometry (FIG. 2a and FIG. 11a).
Tissue was minced with a scalpel and digested with 0.25% Trypsin-EDTA for 30 min at 37° C. Trypsinization was stopped by addition of MEF Medium (MEFM: Dulbecco's modified Eagle's medium (DMEM), 10% fetal bovine serum (FBS), 2 mM L-glutamine, penicillin/streptomycin). After resuspension the cells were centrifuged and the pellet was resuspended in MEFM and plated on gelatine-coated 6-well plates for 3 days until they reached confluency. […] MEFs, TTFs and human fibroblasts were frozen in liquid nitrogen and used without further passaging for reprogramming experiments. For efficiency improvement experiments the following substances were added to the cell culture medium for 7 days: Vitamin C (Sigma, 50 μg/ml); CHIR99021 (Sigma, 3 μM); Forskolin (FocusBiomolecules, 10 μM); Valproic Acid (Sigma, 1 mM); 5-Azacytidine (Sigma, 2 μM).
For the infection of MEFs, TTFs, HFoFs and HFeFs virus concentrate was diluted 1:100 (high viral titers) to 1:1000 (low viral titers) in MEFM containing 10 μg/ml Polybrene and cells were incubated for 12 h. Viral infection was repeated five to seven times. After cultivation in MEFM for 7 days, MEFs and TTFs were analyzed for GFP expression by flow cytometry.
For flow cytometry analyses, cells were harvested, resuspended in FACS buffer (PBS supplemented with 3% FBS and 5 mM EDTA), filtered through a 50 μm cell strainer and analyzed using the 13-color LCR Fortessa FACS analyzer (Becton Dickinson).

[2] = biological target: organic cation transporter 2 (Oct2) (Mus musculus, UniProt O70577); conditions: 6 μg/ml cisplatin and 1 mM cimetidine versus cisplatin alone
Protocol: Drug treated cells and untreated controls were stained with 1 μg/ml DAPI (Invitrogen, D1306) for 5 minutes and fluorescence was measured via flow cytometry using the 405 nm laser for excitation. Dead cells were identified by comparing emission of DAPI stained cell and unstained controls using a 450/50 nm band pass filter. For Kim-1 expression analysis MEFs and iRECs were treated with Gentamicin (1 mg/ml for 48 h), stained for Kim-1 (Miltenyi Biiotec, 130-106-024) and analyzed by flow cytometry. […] Cells were harvested and analyzed as described above. Experiments were performed in triplicates and repeated three times.

iRECs [3] = assay: Cytotoxicity assay (dead/apoptotic cells by DAPI flow cytometry) in iRECs versus MEFs; type: cell-based; conditions: Cisplatin 6 μg/ml 24 h; Tacrolimus 40 μM 24 h; Gentamicin 1 mg/ml 48 h
Protocol: (§1) Cells were harvested and analyzed as described above. Experiments were performed in triplicates and repeated three times.

iRECs [4] = assay: Kim-1 expression analysis by flow cytometry after drug treatment; type: cell-based, mouse; conditions: Gentamicin 1 mg/ml for 48 h
Protocol: as §1

Chain of organic cation transporter 2 (Oct2) (O70577 whole entry): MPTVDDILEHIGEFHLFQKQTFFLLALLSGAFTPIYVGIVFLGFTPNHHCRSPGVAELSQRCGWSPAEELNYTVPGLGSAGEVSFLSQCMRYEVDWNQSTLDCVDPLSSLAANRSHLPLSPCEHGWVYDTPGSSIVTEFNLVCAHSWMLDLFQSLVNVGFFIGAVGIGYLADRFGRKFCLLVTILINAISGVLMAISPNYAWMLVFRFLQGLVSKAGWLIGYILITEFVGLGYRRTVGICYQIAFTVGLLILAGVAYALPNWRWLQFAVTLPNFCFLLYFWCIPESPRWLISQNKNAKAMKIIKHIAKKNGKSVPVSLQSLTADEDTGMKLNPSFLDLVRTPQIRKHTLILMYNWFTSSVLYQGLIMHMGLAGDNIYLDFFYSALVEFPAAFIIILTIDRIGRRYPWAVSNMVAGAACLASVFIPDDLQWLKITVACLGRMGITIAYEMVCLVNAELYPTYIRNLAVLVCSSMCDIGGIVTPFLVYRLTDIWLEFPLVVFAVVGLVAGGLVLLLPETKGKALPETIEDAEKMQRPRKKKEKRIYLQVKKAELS

Molecule	effect on the percentage of GFP-positive cells [1]	also measured
Nc1ncn([C@@H]2O[C@H](CO)[C@@H](O)[C@H]2O)c(=O)n1 [5 azacytidine, 5-azacytidine]	did not have an effect	–
Cc1c[nH]c(-c2cnc(NCCNc3ccc(C#N)cn3)nc2-c2ccc(Cl)cc2Cl)n1 [CHIR99021]	did not have an effect	–
CN/C(=N/CCSCc1nc[nH]c1C)NC#N [Cimetidine]	–	cisplatin induced toxicity in iRECs [2]: decreased
O=C1O[C@H]([C@@H](O)CO)C(O)=C1O [Vitamin C]	did not have an effect	–
CCCC(CCC)C(=O)O [valproic acid]	did not have an effect	–
Gentamicin	–	rate of apoptosis in treated iRECs compared to MEFs (iRECs [3]): significantly higher; Kidney injury molecule 1 (KIM1) in iRECs (iRECs [4]): markedly increased

— patent publication US11046932B2, “Method of producing renal cells from differentiated cells” (priority 2016, dated 2021)
